Biological target: glutamate carboxypeptidase II (GCPII) (Homo sapiens, UniProt Q04609)
Type: biochemical

Sequence of glutamate carboxypeptidase II (GCPII) (Q04609 whole entry): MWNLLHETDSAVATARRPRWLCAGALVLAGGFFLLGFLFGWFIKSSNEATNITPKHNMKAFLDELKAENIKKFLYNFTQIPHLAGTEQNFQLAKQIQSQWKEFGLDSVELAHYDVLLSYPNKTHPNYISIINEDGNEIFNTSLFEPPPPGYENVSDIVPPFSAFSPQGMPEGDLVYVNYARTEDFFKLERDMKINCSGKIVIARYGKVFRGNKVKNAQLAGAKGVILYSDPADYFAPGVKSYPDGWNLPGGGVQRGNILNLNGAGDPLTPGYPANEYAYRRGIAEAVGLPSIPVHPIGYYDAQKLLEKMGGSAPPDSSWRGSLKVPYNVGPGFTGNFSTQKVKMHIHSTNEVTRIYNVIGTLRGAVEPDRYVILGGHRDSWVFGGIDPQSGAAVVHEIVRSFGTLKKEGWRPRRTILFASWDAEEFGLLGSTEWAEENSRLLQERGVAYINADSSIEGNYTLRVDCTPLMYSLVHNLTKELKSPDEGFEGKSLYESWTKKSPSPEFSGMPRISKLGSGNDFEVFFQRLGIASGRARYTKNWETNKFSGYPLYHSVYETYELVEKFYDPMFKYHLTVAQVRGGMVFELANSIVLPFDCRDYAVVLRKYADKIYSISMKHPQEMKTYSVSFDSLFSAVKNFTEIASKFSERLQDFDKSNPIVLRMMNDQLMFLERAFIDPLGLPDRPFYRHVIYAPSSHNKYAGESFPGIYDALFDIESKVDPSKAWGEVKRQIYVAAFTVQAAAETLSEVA

Ki: 0.0394 ± 0.0029 µM
Structure (SMILES): CCC[C@H](NC(=O)N[C@@H](CCC(=O)O)C(=O)O)C(=O)O [ZJ44, N-[[[(1S)-1-Carboxy-3-methylpropyl]amino]carbonyl]-L-glutamic acid]

Source: publication PMC3410622 (2012)
